This is an account of results in patent US20250161329A1, “USE OF UV FILTERS FOR THE TREATMENT OF ACNE” (DSM IP ASSETS B.V., priority 2022, published 2025).

Assay [1] concerns Staphylococcus epidermidis ATCC 12228. Briefly: In vitro UV model, survival of S. epidermidis after UV irradiation (96-well liquid model, MPN method). It counts as cell-based. As for the experimental part:
Accordingly, the inventors developed a targeted in vitro liquid model in 96-well microplate format to screen for UV protective actives (“UV filters”) on bacterial survival. The effects of selected UV irradiation conditions tested on microbial population of C. acnes and the commensal reference strain of Staphylococcus epidermidis in the presence of various UV filters and combinations thereof were evaluated with the evolution of the residual microbial population after 4 h. The inhibition of bacterial growth, as consequence of UV irradiation, was compared to that of the same strain without UV irradiation and was expressed in percentage of survival (%). […] The use level of the single UV filter and combinations in the test formulations was calculated to obtain a predicted in vitro SPF value of 5.75+/−0.15 and 23.45+/−0.65, respectively (Table 2). […] The relative percentage of protection (%) was calculated from the difference between the survival percentages of samples and vehicle control (with UV irradiation) and divided to the survival percentage of the vehicle control. Consequently, the survival of each microbial population and the relative protection by the UV filter(s) were calculated and are summarized in the Table 2.

In assay [2] the test system is Cutibacterium acnes ATCC 11827. Nature of the assay: In vitro UV model, survival of C. acnes after UV irradiation (96-well liquid model, plate counting). Conditions: for C. acnes relative protection by the UV filter(s) vs. vehicle control / C. acnes survival: UV 3 SED (UVA+UVB 30 mJ/cm^2), after 4 h, sample at 20% v/v; for C. acnes relative protection by the UV filter(s) vs. vehicle control: (sample survival - vehicle survival)/vehicle survival; for C. acnes survival: compared to untreated and non-irradiated control. It counts as cell-based. How it is done: Accordingly, the inventors developed a targeted in vitro liquid model in 96-well microplate format to screen for UV protective actives (“UV filters”) on bacterial survival. The effects of selected UV irradiation conditions tested on microbial population of C. acnes and the commensal reference strain of Staphylococcus epidermidis in the presence of various UV filters and combinations thereof were evaluated with the evolution of the residual microbial population after 4 h. The inhibition of bacterial growth, as consequence of UV irradiation, was compared to that of the same strain without UV irradiation and was expressed in percentage of survival (%). The microbial strains used in this study are listed below and their cultures are reconstituted according to the direction of the supplier collection center of the reference strain, (ATCC American Type Culture Collection, USA): • Cutibacterium acnes ATCC 11827 • Staphylococcus epidermidis ATCC 12228 The 96-well plate was filled with the recommended culture media (140 μL) and a calibrated inoculum (20 μL) of each bacterial strain was added to reach […] colony forming units per milliliter (cfu/mL) final concentration. After contamination, the sample was added (40 μL; 20% v/v) in triplicate and was thoroughly mixed to ensure a homogeneous distribution. Then, the plate was submitted to UV stress through an UV irradiator system (BioSun, Vilber Lourmat, France) according to the UV doses presented Table 1 below. The specific UV dose selected was between 10 and 49% survival of the microbial population. The counting of C. acnes microbial population was performed by plating aliquots on the agar plates and was done in triplicate. The enumeration of grown C. acnes colonies was used to determine the decrease rate of microbial population. Controls performed during this experiment were the culture medium with bacteria incubated without UV stress. The microbial population counts were expressed in cfu/mL and were the average of experiment done in triplicate. The use level of the single UV filter and combinations in the test formulations was calculated to obtain a predicted in vitro SPF value of 5.75+/−0.15 and 23.45+/−0.65, respectively (Table 2). The UV filters were mixed in the two oils, Tegosoft XC (55%) and Miglyol 829 Eco (ad100%) and the emulsifier Tween 80 (5%). The effect of selected UV irradiation conditions on the survival of microbial population of C. acnes and S. epidermidis in the presence of the tested samples 1-10 at 20% v/v, was compared with the corresponding strain in the absence of samples 1-10 and without exposure to UV irradiation (control). The results after the 4-hour incubation were compared to the population of bacteria incubated without UV stress (determination of bacterial population survival) and were expressed in percentage of survival (%). The relative percentage of protection (%) was calculated from the difference between the survival percentages of samples and vehicle control (with UV irradiation) and divided to the survival percentage of the vehicle control. Consequently, the survival of each microbial population and the relative protection by the UV filter(s) were calculated and are summarized in the Table 2.

In the case of `CCCCC(CC)COC(=O)C(C#N)=C(c1ccccc1)c1ccccc1` (stereo not shown) [Inv. 1, Octocrylene], the “effect on the commensal bacterium S. epidermidis upon UV irradiation (in words)” value in assay [1] is “maintain or even propagating the commensal bacterium S. epidermidis”. Besides, the “effect on the population of C. acnes upon UV irradiation (in words)” value in assay [2] (C. acnes ATCC 11827, phylotype IA, upon UV irradiation) was “reduced the population of C. acnes”. Besides, in assay [2], the “C. acnes relative protection by the UV filter(s) vs. vehicle control” value is listed as “(−15) %” and the C. acnes survival stood at 56%.
In the case of `CCCCC(CC)COC(=O)c1ccccc1O` (stereo not shown) [Inv. 2, Ethylhexyl Salicylate], in assay [2], the “C. acnes relative protection by the UV filter(s) vs. vehicle control” value is reported as “(−30) %” and the C. acnes survival was 46%.
The corresponding values for `CCCCC(CC)COc1ccc(-c2nc(-c3ccc(OC)cc3)nc(-c3ccc(OCC(CC)CCCC)cc3O)n2)c(O)c1` (stereo not shown) [Ref. 2, Bis-Ethylhexyloxyphenol Methoxyphenyl Triazine, reference compound] are “(+13) %” and 74%.
Taken in the same sequence, the figures for `CCCCC(CC)COC(=O)c1ccc(Nc2nc(Nc3ccc(C(=O)OCC(CC)CCCC)cc3)nc(Nc3ccc(C(=O)OCC(CC)CCCC)cc3)n2)cc1` (stereo not shown) [Ref. 1, Ethylhexyl Triazone, reference compound] were “(+40) %” and 92%.
